Laboratory results taken from the NIST ThermoML archive (doi:10.1007/s10765-009-0602-6).

Assay: molar heat capacity at constant volume; xn = mol fraction of the nth substance listed
Conditions: Fluid (supercritical or subcritical phases), isochoric heat capacity, x1 = 0.2607

N [ammonia] + O
Conditions	molar heat capacity at constant volume [J/K/mol]
602.99 K, Mass density=227.54 kg/m3	102.11
602.99 K, Mass density=230.31 kg/m3	103.53
602.99 K, Mass density=311.19 kg/m3	92.66
602.99 K, Mass density=342.18 kg/m3	84.9
603.01 K, Mass density=218.92 kg/m3	92.95
603.08 K, Mass density=205.58 kg/m3	71.27
603.08 K, Mass density=214.83 kg/m3	91.92
603.08 K, Mass density=218.92 kg/m3	93.46
603.08 K, Mass density=224.53 kg/m3	102.11
603.08 K, Mass density=227.54 kg/m3	94.83
603.08 K, Mass density=230.31 kg/m3	97.85
603.08 K, Mass density=311.19 kg/m3	88.26
603.1 K, Mass density=214.83 kg/m3	85.33
603.16 K, Mass density=205.58 kg/m3	70.95
603.16 K, Mass density=227.54 kg/m3	89.2
603.16 K, Mass density=230.31 kg/m3	92.7
603.16 K, Mass density=311.19 kg/m3	87
603.17 K, Mass density=224.53 kg/m3	98.9
603.17 K, Mass density=243.98 kg/m3	88.9
603.17 K, Mass density=260.02 kg/m3	88.9
603.25 K, Mass density=205.58 kg/m3	73.52
603.25 K, Mass density=224.53 kg/m3	95.33
603.25 K, Mass density=227.54 kg/m3	90.78
603.25 K, Mass density=311.19 kg/m3	89.86
603.26 K, Mass density=230.31 kg/m3	91.49
603.26 K, Mass density=243.98 kg/m3	86.61
603.26 K, Mass density=260.02 kg/m3	86.61
603.33 K, Mass density=224.53 kg/m3	94.9
603.34 K, Mass density=205.58 kg/m3	69.68
603.34 K, Mass density=243.98 kg/m3	87.69
603.34 K, Mass density=260.02 kg/m3	87.69
603.42 K, Mass density=205.58 kg/m3	67.87
603.42 K, Mass density=224.53 kg/m3	95.2
603.42 K, Mass density=311.19 kg/m3	88.62
603.43 K, Mass density=243.98 kg/m3	88.17
603.43 K, Mass density=260.02 kg/m3	88.17
603.51 K, Mass density=205.58 kg/m3	72.19
603.51 K, Mass density=243.98 kg/m3	85.63
603.51 K, Mass density=260.02 kg/m3	85.63
603.58 K, Mass density=243.98 kg/m3	83.27
603.58 K, Mass density=260.02 kg/m3	83.27
603.59 K, Mass density=205.58 kg/m3	69.01
603.59 K, Mass density=227.54 kg/m3	89.22
603.6 K, Mass density=214.83 kg/m3	85.67
603.67 K, Mass density=230.31 kg/m3	84.99
603.68 K, Mass density=214.83 kg/m3	84.57
603.68 K, Mass density=227.54 kg/m3	87.34
603.69 K, Mass density=243.98 kg/m3	85.13
603.69 K, Mass density=260.02 kg/m3	85.13
603.76 K, Mass density=227.54 kg/m3	89.27
603.77 K, Mass density=214.83 kg/m3	81.81
603.77 K, Mass density=218.92 kg/m3	89.86
603.78 K, Mass density=243.98 kg/m3	82.7
603.78 K, Mass density=260.02 kg/m3	82.7
603.85 K, Mass density=224.53 kg/m3	94
603.85 K, Mass density=227.54 kg/m3	85.53
603.86 K, Mass density=218.92 kg/m3	86.91
603.86 K, Mass density=260.02 kg/m3	83.32
603.92 K, Mass density=214.83 kg/m3	84.57
603.93 K, Mass density=227.54 kg/m3	84.41
603.94 K, Mass density=224.53 kg/m3	94.9
603.94 K, Mass density=230.31 kg/m3	86.75
604.02 K, Mass density=224.53 kg/m3	91.83
604.02 K, Mass density=227.54 kg/m3	87.55
604.04 K, Mass density=214.83 kg/m3	80.85
604.09 K, Mass density=214.83 kg/m3	82.56
604.11 K, Mass density=224.53 kg/m3	94.23
604.11 K, Mass density=227.54 kg/m3	83.91
604.12 K, Mass density=230.31 kg/m3	81.87
604.19 K, Mass density=224.53 kg/m3	93.25
604.19 K, Mass density=227.54 kg/m3	84.67
604.2 K, Mass density=214.83 kg/m3	82.1
604.28 K, Mass density=214.83 kg/m3	79.51
604.28 K, Mass density=224.53 kg/m3	89.96
604.28 K, Mass density=227.54 kg/m3	86.4
604.31 K, Mass density=230.31 kg/m3	80.09
604.36 K, Mass density=224.53 kg/m3	91.15
604.43 K, Mass density=230.31 kg/m3	85.06
604.45 K, Mass density=224.53 kg/m3	90.84
604.52 K, Mass density=230.31 kg/m3	82.6
605.13 K, Mass density=329 kg/m3	85.88
605.22 K, Mass density=329 kg/m3	88.22
